# Data published in patent US20020172720A1, “Control of pseudomonas aeruginosa” (priority 2001, published 2002).
# “And” between values parts separate entries of the source, which are not always exact repeats. Identical values can stand only once.
# Tested on: Pseudomonas aeruginosa (ATCC 15442) biofilm
# Assay: MBEC (minimum biofilm eradication concentration) test, Calgary Biofilm Device
# Type: cell-based
# Conditions: for MBEC, ppm as Br2, on 7-day old biofilm: one-hour biocide contact time, biofilm grown seven days in nutrient solution, halogen biocides expressed as Br2
# Text: The efficacy of this invention in eradicating (i.e. controlling) Pseudomonas aeruginosa biofilm of sufficient age such that it had developed an extracellular polysaccharide protective slime layer, was shown by a series of standard tests performed on our behalf at MBEC Biofilm Technologies, Inc., Calgary, Canada. The test procedure, developed at the University of Calgary, utilizes a device which allows the growth of 96 identical biofilms under carefully controlled conditions. The device consists of a two-part vessel comprised of an upper plate containing 96 pegs that seals against a bottom plate. The bottom plate can consist of either a trough (for biofilm growth) or a standard 96-well plate (for biocide challenge). The biofilms develop on the 96 pegs. The device has been used as a general method for evaluating the efficacy of antibiotics and biocides towards biofilms. See in this connection H. Ceri, et al., “The MBEC Test: A New In Vitro Assay Allowing Rapid Screening for Antibiotic Sensitivity of Biofilm”, Proceedings of the ASM, 1998,89,525; Ceri, et al., “Antifungal and Biocide Susceptibility testing of Candida Biofilms using the MBEC Device”, Proceedings of the Interscience Conference on Antimicrobial Agents and Chemotherapy, 1998, 38, 495; and H. Ceri, et al., “The Calgary Biofilm Device: A New Technology for the Rapid Determination of Antibiotic Susceptibility of Bacterial Biofilms”, Journal of Clinical Microbiology, 1999, 37, 1771-1776.
# Six biocide systems were evaluated using the above test procedure and test equipment. Five of these systems were oxidizing biocides, viz., chlorine (from NaOCl), bromine (from NaOCl+NaBr), bromine and chlorine (from BCDMH), bromine (from sulfamate stabilized bromine chloride), and chlorine (from trichloroisocyanuric acid), all expressed as bromine (Br2) in mg/L, so that all test results were placed on the same basis. The sixth biocide was glutaraldehyde, a non-oxidizing biocide.
# These biocide systems were used to challenge biofilms of Pseudomonas aeruginosa (ATCC 15442). This is a Gram (−) bacterium which is known to rapidly develop an extracellular polysaccharide slime layer, and is found in industrial and recreational water systems. See in this connection J. W. Costerton and H. Anwar, “Pseudomonas aeruginosa: The Microbe and Pathogen”, in Pseudomonas aeruginosa Infections and Treatment, A. L. Baltch and R. P. Smith editors, Marcel Dekker publishers, New York, 1994.
# In the Table the MBEC (minimum biofilm eradication concentration) results presented are for the one-hour biocide contact time used in the test. The Psuedomonas aeurginosa colony was allowed to grow in contact with a nutrient solution for seven days. The values given for the halogen containing biocides are expressed in terms of mg/L of bromine as Br2. The data on the glutaraldehyde is in terms of mg/L as active ingredient. […]
# [1] = average of the results, one-hour contact time, 7-day old biofilm, expressed as Br2
Compound,"MBEC, avg. [1] [ppm as Br2]","MBEC, ppm as Br2, on 7-day old biofilm (individual results)","MBEC, avg. (average (est.), one-hour contact time, 7-day old biofilm, glutaraldehyde as active ingredient)","MBEC, on 7-day old biofilm (individual results, one-hour contact time, 7-day old biofilm, glutaraldehyde as active ingredient)"
"CC1(C)C(=O)N(Cl)C(=O)N1Br [Bromine and chlorine (from BCDMH), N,N′-bromochloro-5,5-dimethylhydantoin]",7.5,5 ppm as Br2 and 10 ppm as Br2,–,–
"O=CCCCC=O [Glutaraldehyde, glutaraldehyde]",–,–,~200 (est.) mg/L as active ingredient,100 mg/L as active ingredient and > 200 mg/L as active ingredient
O=c1n(Cl)c(=O)n(Cl)c(=O)n1Cl [trichloroisocyanuric acid],20,"20, 20 ppm as Br2",–,–
